{"source": "patent US12472193B2", "about": "“Methods and compositions for treating and preventing respiratory related diseases and conditions with xylitol-headgroup lipid analogs” (National Jewish Health, priority 2017, dated 2025)", "test_system": "RSV", "assay": "18:1 DEPX interference with RSV infection in vivo (BALB/c mice)", "parameters": "species or system mouse", "conditions": "250 μg 18:1 DEPX intranasal, day 6", "data": [{"smiles": "CCCCCCCCC=CCCCCCCCCOCC(COP(=O)(O)OCC(O)C(O)C(O)CO)OCCCCCCCCC=CCCCCCCCC", "note": "(mixture of isomers) [18:1 DEPX, sn-1-O-octadecenyl, sn-2-O-octadecenyl sn-3 glycerol phosphoxylitol]", "values": [{"measurement": "reduction of viral burden by a factor of (qRT-PCR, FIGS. 12A and 12B)", "result": 6.2}]}]}
